Laboratory results from patent US20230139445A1, “BACTERIAL CELLS WITH IMPROVED TOLERANCE TO DIACIDS” (priority 2016, published 2023).
Where two headings read alike, the source gives them in different places.

Assays:
[1] = tested on: Escherichia coli K-12 MG1655; test: Screening for tolerance in wild-type cells: growth in varying concentrations of neutralized diacid, Biolector; type: cell-based; details: for tlag (lag time), mean / μ (growth rate), mean: neutralized with sodium hydroxide
Description: Escherichia coli K-12 MG1655 was grown overnight in M9 minimal medium+1% glucose and subcultured the following morning to an initial OD600 of 0.05 in M9+1% glucose. Cells were grown to mid-exponential phase (OD600 0.7-1.0) and were back-diluted with fresh medium to an OD600 of 0.7. The diluted cells were used to inoculate M9+1% glucose containing varying concentrations of glutaric acid or adipic acid which were neutralized to pH 7.0 with sodium hydroxide, and growth was measured in FlowerPlates in a Biolector microbioreactor system (m2p-labs) at 37° C. with 1000 rpm shaking. The culture volume in each well was 1.4 mL.

[2] = tested on: Escherichia coli K-12 MG1655 and evolved isolates; type: cell-based; details: 45 g/L pimelic acid
Description: Five colonies from wild-type K-12 MG1655 and 10 individual colonies deriving from each population were inoculated into 300 μL M9+1% glucose in 96 well deepwell plates and incubated in a 300 rpm plate shaker at 37° C. The next day, cells were diluted 10× in M9+1% glucose and 30 μL was transferred into clear-bottomed 96 well half-deepwell plates (with rectangular wells) containing M9+1% glucose and M9+1% glucose+52.78 g/L glutaric acid or 55.56 g/L adipic acid, such that the final concentration of glutaric acid or adipic acid was 47.5 g/L or 50 g/L, respectively. In addition, cryogenic glycerol stocks of the overnight culture were saved in a 96 well plate format. Half deepwell plates were incubated at 37° C. with 225 rpm shaking in a Growth Profiler (Enzyscreen), with optical scans of the plates taken at 15 minute intervals. Green pixel values integrated over a 1 mm diameter circular area in each well were converted to OD600 values using a previously determined calibration between OD600 and green pixel values.
Additionally, each evolved isolate was tested for cross-tolerance toward other dicarboxylic acids of interest. […] All diacids tested were either the neutral sodium salts, or the free diacid was neutralized with sodium hydroxide to pH 7.0 for testing.

## O=C(O)CCCCCC(=O)O [pimelic acid]
[1]; 10 g/L
  tlag (lag time), mean: 1.9 h
[1]; 10 g/L, M9+1% glucose, 37° C
  μ (growth rate), mean: 0.694 h⁻¹
[1]; 20 g/L
  tlag (lag time), mean: 2.4 h
  μ (growth rate), mean: 0.656 h⁻¹
[1]; 25 g/L
  tlag (lag time), mean: 2.5 h
  μ (growth rate), mean: 0.572 h⁻¹
[1]; 30 g/L
  tlag (lag time), mean: 3.3 h
  μ (growth rate), mean: 0.560 h⁻¹
[1]; 35 g/L
  tlag (lag time), mean: 4.1 h
  μ (growth rate), mean: 0.534 h⁻¹
[1]; 40 g/L
  tlag (lag time), mean: 4.3 h
  μ (growth rate), mean: 0.439 h⁻¹
[1]; 45 g/L
  tlag (lag time), mean: 4.6 h
  μ (growth rate), mean: 0.280 h⁻¹
[1]; at 45 g/L
  growth of K-12 MG1655: Robust growth was still observed
[2]; strain ADIP1-1
  growth rate μ (mean): 0.432 h⁻¹
  lag time tlag (mean): 9.6 h
[2]; strain ADIP1-9
  growth rate μ (mean): 0.421 h⁻¹
  lag time tlag (mean): 8.8 h
[2]; strain ADIP2-5
  growth rate μ (mean): 0.474 h⁻¹
  lag time tlag (mean): 11.0 h
[2]; strain ADIP2-6
  growth rate μ (mean): 0.480 h⁻¹
  lag time tlag (mean): 10.6 h
[2]; strain ADIP2-10
  growth rate μ (mean): 0.479 h⁻¹
  lag time tlag (mean): 10.8 h
[2]; strain ADIP3-2
  growth rate μ (mean): 0.438 h⁻¹
  lag time tlag (mean): 8.4 h
[2]; strain ADIP3-4
  growth rate μ (mean): 0.435 h⁻¹
  lag time tlag (mean): 8.5 h
[2]; strain ADIP3-8
  growth rate μ (mean): 0.426 h⁻¹
  lag time tlag (mean): 9.1 h
[2]; strain ADIP4-1
  growth rate μ (mean): 0.348 h⁻¹
  lag time tlag (mean): 9.9 h
[2]; strain ADIP4-8
  growth rate μ (mean): 0.349 h⁻¹
  lag time tlag (mean): 10.3 h
[2]; strain ADIP5-2
  growth rate μ (mean): 0.385 h⁻¹
  lag time tlag (mean): 8.7 h
[2]; strain ADIP5-6
  growth rate μ (mean): 0.483 h⁻¹
  lag time tlag (mean): 8.5 h
[2]; strain ADIP6-3
  growth rate μ (mean): 0.346 h⁻¹
  lag time tlag (mean): 10.4 h
[2]; strain ADIP6-9
  growth rate μ (mean): 0.278 h⁻¹
  lag time tlag (mean): 11.1 h
[2]; strain ADIP6-10
  growth rate μ (mean): 0.360 h⁻¹
  lag time tlag (mean): 9.7 h
[2]; strain ADIP7-2
  growth rate μ (mean): 0.393 h⁻¹
  lag time tlag (mean): 9.0 h
[2]; strain ADIP7-5
  growth rate μ (mean): 0.376 h⁻¹
  lag time tlag (mean): 9.4 h
[2]; strain ADIP8-3
  growth rate μ (mean): 0.235 h⁻¹
  lag time tlag (mean): 12.8 h
[2]; strain ADIP8-7
  growth rate μ (mean): 0.268 h⁻¹
  lag time tlag (mean): 12.8 h
[2]; strain ADIP8-10
  growth rate μ (mean): 0.249 h⁻¹
  lag time tlag (mean): 12.8 h
[2]; strain GLUT1-3
  growth rate μ (mean): 0.369 h⁻¹
  lag time tlag (mean): 10.4 h
[2]; strain GLUT1-9
  growth rate μ (mean): 0.337 h⁻¹
  lag time tlag (mean): 11.9 h
[2]; strain GLUT1-10
  growth rate μ (mean): 0.399 h⁻¹
  lag time tlag (mean): 13.1 h
[2]; strain GLUT2-1
  growth rate μ (mean): 0.362 h⁻¹
  lag time tlag (mean): 11.6 h
[2]; strain GLUT2-9
  growth rate μ (mean): 0.349 h⁻¹
  lag time tlag (mean): 10.3 h
[2]; strain GLUT2-10
  growth rate μ (mean): 0.383 h⁻¹
  lag time tlag (mean): 10.2 h
[2]; strain GLUT3-5
  growth rate μ (mean): 0.280 h⁻¹
  lag time tlag (mean): 17.6 h
[2]; strain GLUT3-7
  growth rate μ (mean): 0.360 h⁻¹
  lag time tlag (mean): 11.5 h
[2]; strain GLUT3-9
  growth rate μ (mean): 0.351 h⁻¹
  lag time tlag (mean): 15.7 h
[2]; strain GLUT4-1
  growth rate μ (mean): 0.378 h⁻¹
  lag time tlag (mean): 12.8 h
[2]; strain GLUT4-4
  growth rate μ (mean): 0.388 h⁻¹
  lag time tlag (mean): 13.2 h
[2]; strain GLUT4-10
  growth rate μ (mean): 0.371 h⁻¹
  lag time tlag (mean): 11.5 h
[2]; strain GLUT5-4
  growth rate μ (mean): 0.433 h⁻¹
  lag time tlag (mean): 12.1 h
[2]; strain GLUT5-5
  growth rate μ (mean): 0.420 h⁻¹
  lag time tlag (mean): 12.8 h
[2]; strain GLUT5-9
  growth rate μ (mean): 0.428 h⁻¹
  lag time tlag (mean): 13.0 h
[2]; strain GLUT6-4
  growth rate μ (mean): 0.356 h⁻¹
  lag time tlag (mean): 11.7 h
[2]; strain GLUT6-5
  growth rate μ (mean): 0.348 h⁻¹
  lag time tlag (mean): 11.3 h
[2]; strain GLUT6-10
  growth rate μ (mean): 0.353 h⁻¹
  lag time tlag (mean): 12.1 h
[2]; strain GLUT7-2
  growth rate μ (mean): 0.349 h⁻¹
  lag time tlag (mean): 11.6 h
[2]; strain GLUT7-6
  growth rate μ (mean): 0.357 h⁻¹
  lag time tlag (mean): 14.8 h
[2]; strain GLUT7-7
  growth rate μ (mean): 0.335 h⁻¹
  lag time tlag (mean): 14.1 h
[2]; strain GLUT8-5
  growth rate μ (mean): 0.349 h⁻¹
  lag time tlag (mean): 11.8 h
[2]; strain GLUT8-6
  growth rate μ (mean): 0.184 h⁻¹
  lag time tlag (mean): 20.9 h
[2]; strain GLUT8-9
  growth rate μ (mean): 0.259 h⁻¹
  lag time tlag (mean): 11.2 h
[2]; strain MG1655 (Table 28)
  growth rate μ (mean): 0.275 h⁻¹
  lag time tlag (mean): 13.4 h
[2]; strain MG1655 (Table 29)
  growth rate μ (mean): 0.271 h⁻¹
  lag time tlag (mean): 12.4 h
